For experiment [1], the target named is T1, TrkA (Homo sapiens (Human), UniProt P04629). The experiment can be described thus: Measurement of TrkA enzyme-inhibiting activity (LanthaScreen TR-FRET kinase assay). The experiment is classed as biochemical. The following applies: final ATP 150 μM, read-out: TrkA inhibitory activity (IC50; μM). As to the method: TrkA-inhibiting activity was measured according to the following method using LanthaScreen™ kinase assay reagents (Invitrogen; Fluorescein-Poly GT, LanthaScreen™ Tb-PY20 and TR-FRET Dilution Buffer), TrkA (Invitrogen), ATP (Sigma-Aldrich), a kinase reaction buffer (50 mM HEPES buffer (Sigma-Aldrich) (pH 7.5) containing 0.01% Brij35 (Sigma-Aldrich), 10 mM MgCl2 (Sigma-Aldrich) and 1 mM EGTA (Sigma-Aldrich)) and 0.5 M EDTA (pH 8.0) (Invitrogen).
T1 sequence (P04629 33-796): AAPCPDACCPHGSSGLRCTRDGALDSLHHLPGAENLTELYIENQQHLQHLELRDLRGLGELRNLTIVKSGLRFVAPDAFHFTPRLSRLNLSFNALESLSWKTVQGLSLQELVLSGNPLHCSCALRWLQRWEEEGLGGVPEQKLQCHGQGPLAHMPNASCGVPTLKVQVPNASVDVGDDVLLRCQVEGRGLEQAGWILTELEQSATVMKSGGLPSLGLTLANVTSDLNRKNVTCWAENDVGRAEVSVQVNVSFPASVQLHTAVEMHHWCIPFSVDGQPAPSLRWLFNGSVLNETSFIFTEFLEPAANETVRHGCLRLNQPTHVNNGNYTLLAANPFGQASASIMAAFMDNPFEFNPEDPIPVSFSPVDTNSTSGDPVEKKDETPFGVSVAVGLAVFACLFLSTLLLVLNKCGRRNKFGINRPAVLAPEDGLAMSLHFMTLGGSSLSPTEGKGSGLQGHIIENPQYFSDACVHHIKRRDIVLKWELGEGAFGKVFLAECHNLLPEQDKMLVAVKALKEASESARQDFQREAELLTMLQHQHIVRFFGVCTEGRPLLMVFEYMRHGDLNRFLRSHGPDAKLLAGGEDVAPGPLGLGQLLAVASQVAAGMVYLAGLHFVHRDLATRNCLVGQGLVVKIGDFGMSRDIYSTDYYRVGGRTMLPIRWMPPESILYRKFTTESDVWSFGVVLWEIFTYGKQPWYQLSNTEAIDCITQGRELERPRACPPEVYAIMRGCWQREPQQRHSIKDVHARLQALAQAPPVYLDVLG
The present compound was dissolved in dimethylsulfoxide (hereinafter abbreviated as DMSO) to prepare a 10 mM solution. The test compound at 10 mM was distributed into a 96-well plate and serially diluted with DMSO with the geometrical ratio of 3. The serial dilutions (DMSO solutions) were diluted with the kinase reaction buffer to 20-fold to prepare solutions of the present compound with 5-times concentrations (DMSO concentration: 5%). TrkA was diluted with the kinase reaction buffer to prepare a solution at 38.5 ng/mL (enzyme solution). Adenosine triphosphate (hereinafter abbreviated as ATP) was preliminarily diluted in distilled water to prepare a 10 mM solution which was then divided into containers and stored at −20° C. The 10 mM ATP solution and Fluorescein-Poly GT were diluted in the kinase reaction buffer to prepare a solution containing […] of ATP and 500 nM of Fluorescein-Poly GT (ATP-substrate solution). EDTA (0.5 M; pH 8.0) and LanthaScreen™ Tb-PY20 were diluted in the TR-FRET Dilution Buffer to prepare a solution containing 20 mM of EDTA and 4 nM of LanthaScreen™ Tb-PY20 (detection buffer).
The solutions of the present compound (5 μL/well) and the enzyme solution (10 μL/well) were added to a 96-half well assay plate and the plate was shaken at room temperature for 10 minutes on a plate shaker (IKA™ MTS2/4 digital microplate, IKA Japan K.K.). As a control and a blank, the kinase reaction buffer containing 5% DMSO (5 μL/well) was added in place of the solution of the present compound. As a blank, the kinase reaction buffer (10 μL/well) was added in the place of the enzyme solution. The ATP-substrate solution (10 μL/well) was then added to the plate to initiate kinase reaction and the plate was shaken in the dark at room temperature for 1 hour on the plate shaker (final concentration of TrkA: 15.4 ng/mL, final concentration of the substrate: 200 nM and final concentration of ATP: 150 μM). Kinase reaction was terminated by adding the detection buffer (25 μL/well) to the plate and the plate was shaken in the dark at room temperature for 30 minutes on the plate shaker. On an Analyst GT (Molecular Devices Japan, K.K.) the wells were irradiated with excitation light at 340 nm and the fluorescence intensities at 520 nm and 495 nm were measured. The fluorescence intensity at 520 nm for each well was divided by the fluorescence intensity at 495 nm to calculate the time resolved fluorescence resonance energy transfer (TR-FRET) ratio.
The inhibition rate (%) of the present compound was calculated according to the following Equation 1: Inhibition rate (%)={1−(AX−AB)/(AC−AB)×100 Equation 1
wherein AX: the TR-FRET ratio when the present compound is added;
AB: the TR-FRET of the blank; and
AC: the TR-FRET of the control.
The value for 50% inhibition by the present compound (IC50 value) was calculated from the inhibition curve based on the inhibition rate of the present compound at respective concentrations.

For experiment [2], the target named is T1, TrkA. In words: TrkA kinase-inhibiting activity using human TrkA expressing cells (CellSenser TrkA-NFAT-bla CHO-K1, NGF-stimulated reporter assay). Format: cell-based. Conditions: CHO-K1 cells expressing human TrkA and NFAT-bla; NGF 50 ng/ml; read-out: TrkA inhibitory activity (IC50; μM). On the procedure: TrkA kinase-inhibiting activity in cell systems was measured using CHO-K1 cells expressing human TrkA and NFAT-bla (CellSenser™ TrkA-NFAT-bla CHO-K1 cells, Invitrogen).
On the day before the assay, CellSenser™ TrkA-NFAT-bla CHO-K1 cells were suspended in an assay medium (Opti-MEM1 Reduced Serum Medium (Invitrogen) containing 0.5% dialysed fetal bovine serum (Invitrogen), 0.1 mM nonessential amino acids (Invitrogen), 1 mM sodium pyruvate (Invitrogen) and antibiotics (100 U/mL penicillin and 100 μg/mL streptomycin (Invitrogen)) and plated at a density of 2.4×10^4 cells/40 μL/well in a 96-well clear bottom plate (Corning, Catalogue No.: 3882). In some wells were added only the assay medium at 40 μL/well (Cell-free). On the day of the assay, 10 mM of the present compound (DMSO solution) was distributed in a 96-well plate (Costar, Catalogue No.: 3363) and serially diluted with DMSO with the geometrical ratio of 3. The serial dilutions were diluted with the assay medium to 100-fold to prepare a solution of the present compound with a 10-times concentration (DMSO concentration: 1%). To the plate where cells were plated was added the present compound at 5 μL/well and the plate was incubated in a CO2 incubator with 5% CO2, 95% Air at 37° C. for 30 minutes. For a control and a blank, the assay medium containing 1% DMSO was added at 5 μL/well in place of the solution of the present compound. Subsequently the assay medium containing NGF (Mouse 2.5s, Natural, Invitrogen) was added to the plate at 5 µL/well (final concentration of NGF: 50 ng/ml) and the plate was incubated in a CO2 incubator with 5% CO2, 95% Air at 37° C. for 5 hours. For a group of blanks, the assay medium was added in place of NGF at 5 μL/well. A reporter assay detection reagent (10 μL/well) was added to the plate and the plate was then incubated in the dark at room temperature for 120 minutes. The reporter assay detection reagent was prepared from LiveBLAzer™-FRET B/G Loading Kit (Invitrogen). On an Analyst GT (Molecular Devices Japan, K.K.) the wells were irradiated with excitation light at 405 nm and the fluorescence intensities at 460 nm and 530 nm were measured. The time resolved fluorescence resonance energy transfer (TR-FRET) ratio of each well was calculated according to the following Equation 2. TR-FRET Ratio=(A460X−A460F)/(A530X−A530F) Equation 2
wherein A460X: the fluorescence intensity at 460 nm of the present compound, control or blank;
A460F: the fluorescence intensity at 460 nm of the Cell-free;
A530X: the fluorescence intensity at 530 nm of the present compound, control or blank; and
A530F: the fluorescence intensity at 530 nm of the Cell-free. […]
The IC50 value of the present compound was calculated from the inhibition curve based on the inhibition rate of the present compound at respective concentrations.

Experiment [3] concerns NGF-induced vascular hyper permeability. The experiment can be described thus: Suppression of rat NGF-induced vascular hyper permeability (in vivo test, Evans Blue). The following applies: oral, 12 hours after administration, read-out: Rates of Suppression for Vascular Hyper Permeability (%). On the procedure:
TrkA-inhibiting activity of the present compound was evaluated in vivo. The present compound dissolved in a medium was orally administered (adminstered volume: 5 mL/kg) to male CD(SD)IGS rats (7- to 9-week old, Charles River laboratories Japan, Inc.) shaved on the back. A medium was orally administered (adminstered volume: 5 mL/kg) to the control and normal groups. After 6 or 12 hours of administration, 3 μg/mL of a NGF (Mouse 2.5s, Natural, Invitrogen) solution prepared in 0.1% BSA (Sigma-Aldrich)-containing saline was intracutaneously administered (dose; 50 μL/site) at 3 sites on the back of animals under halothane anesthesia. For the normal group, 0.1% BSA-containing saline was intracutaneously administered (dose; 50 μL/site) at 3 sites on the back. Immediately after intracutaneous administration, 1% Evans Blue (Tokyo Chemical Industry Co., Ltd.) was administered intravenously from tail (adminstered volume: 3 mL/kg). After 10 minutes of administration, the animals were sacrificed by bleeding due to incision of the abdominal aorta. The sites of intracutaneous administration on the back (3 sites) were excised and the skin samples were respectively transferred to the wells in a 48-well plate (Asahi Glass Co., Ltd.). Formamide (0.8 mL/well) was added to the plate and the plate was sealed and incubated overnight at 60° C. The formamide extraction solution (200 μL) was transferred to a 96-well plate and the absorbance (wavelength: 620 nm) of Evans Blue extracted in formamide was measured on an absorbance microplate reader (SpectraMAX 190, Molecular Devices Japan, K.K.). Standard samples of Evans Blue dissolved in formamide (0, 0.78, 1.56, 3.13, 6.25, 12.5, 25 and 50 μg/mL) were measured at the same time for the absorbance (wavelength: 620 nm) to generate a calibration curve. Based on the calibration curve and the absorbances of samples, the concentrations of Evans Blue in the sample was calculated. The concentrations of Evans Blue for three skin samples collected from one aminal were averaged to obtain the vale for the animal. The rate of suppression for rat NGF-induced vascular hyper permeability of the present compound was calculated according to the following Equation 4: Suppression rate (%)=(1−(AX−AN)/(AC−AN)}×100 Equation 4
wherein AX: the concentration of Evans Blue of the test compound (an average value of 3 samples from one animal);
AN: the concentration of Evans Blue of the normal group (an average value of 3 samples from one animal);
AC: the concentration of Evans Blue of the control group (an average value of 3 samples from one animal).

By IC50 is commonly meant the concentration needed to halve the response being measured.

For the molecule `O=C(Nc1cnc(Oc2ccc(-c3cnc(N4CCCC4=O)s3)cc2)nc1)Nc1cc(C2CC2)nn1-c1ccccc1` [Example 72-7, 1-(3-cyclopropyl-1-phenyl-1H-pyrazol-5-yl)-3-(2-{4-[2-(2-oxo-1-pyrrolidinyl)-1,3-thiazol-5-yl]phenoxy}-5-pyrimidinyl)urea], the figures for the IC50 at TrkA [1] and at TrkA [2] were 0.03 µM and 0.033 µM, respectively.

In the case of `CCCNc1ncc(-c2ccc(Oc3ncc(NC(=O)Nc4cc(C(F)(F)F)ccc4-n4ccc(C(F)(F)F)n4)cn3)cc2)s1` [Example 85-184, 1-(2-{4-[2-(propylamino)-1,3-thiazol-5-yl]phenoxy}-5-pyrimidinyl)-3-{5-(trifluoromethyl)-2-[3-(trifluoromethyl)-1H-pyrazol-1-yl]phenyl}urea], on TrkA [2], the IC50 came to 0.002 µM. Also, the inhibition in vivo at 1 mg/kg in experiment [3] was determined as 96%.

Take `CCCNc1ncc(-c2ccc(Oc3ncc(NC(=O)Nc4cc(F)ccc4F)cn3)cc2)s1` [Example 85-209, 1-(2,5-difluorophenyl)-3-(2-{4-[2-(propylamino)-1,3-thiazol-5-yl]phenoxy}-5-pyrimidinyl)urea]: the IC50 on TrkA [2] was found to be 0.004 µM. Also, in experiment [3], the inhibition in vivo at 1 mg/kg is 81%.

Take `CCCNc1ncc(-c2ccc(Oc3ncc(NC(=O)Nc4cc(C(F)(F)F)ccc4S(=O)(=O)N(C)C)cn3)cc2)s1` [Example 85-225, N,N-dimethyl-2-{[(2-{4-[2-(propylamino)-1,3-thiazol-5-yl]phenoxy}-5-pyrimidinyl)carbamoyl]amino}-4-(trifluoromethyl)benzenesulfonamide]: the half-inhibitory concentration (IC50) on TrkA [2] was 0.004 µM. Besides, in experiment [3], the inhibition in vivo at 1 mg/kg amounted to 94%.

Regarding `CCCNc1ncc(-c2ccc(Oc3ncc(NC(=O)Nc4cc(C(F)(F)F)ccc4S(C)(=O)=O)cn3)cc2)s1` [Example 85-226, 1-[2-(methylsulfonyl)-5-(trifluoromethyl)phenyl]-3-(2-{4-[2-(propylamino)-1,3-thiazol-5-yl]phenoxy}-5-pyrimidinyl)urea], at TrkA [2], the IC50 stood at 0.001 µM. The inhibition in vivo at 1 mg/kg in experiment [3] stood at 100%.

These data come from patent publication US9242977B2, “Trk-inhibiting compound” (ONO PHARMACEUTICAL CO., LTD., priority 2012, dated 2016).
